Reference: patent publication US20250332266A1, “COMPOUNDS FOR THE DEGRADATION OF EGFR KINASE” (BeiGene Switzerland GmbH, priority 2022, published 2025)

Legend:
[1] = molecular target: EGFR Del19/T790M/C797S (H1975-clone #28) (Homo sapiens, UniProt P00533, T790M/C797S, form not given); assay: EGFR degradation, HTRF total-EGFR assay, H1975-clone #28 (DTC); assay type: cell-based; conditions: H1975-clone #28 Del19/T790M/C797S, 16 h treatment
From the text: (§1) H1975-clone #28 (Del19/T790M/C797S, or abbr: DTC), H1975-clone #23 (Del19/C797S, or abbr: DC), H1975-clone #25 (L858R/T790M/C797S, or abbr: LTC) and H1975-clone #8 (L858R/C797S, or abbr: LC). EGFR-Del19/T790M/C797S, EGFR-Del19/C797S, EGFR-L858R/T790M/C797S and EGFR-L858R/C797S were stably expressed in H1975 cell lines by lentivirus-mediated over-expression, respectively. The EGFR over-expressed cells then underwent knockout, in which the EGFR targeting sgRNA was designed to only target the endogenous EGFR copies and preserve the exogenous EGFR copies. Followed by the knockout, the edited H1975 cells were seeded in 96 well plates at the concentration of 1 cell/well, cultured for about 2 weeks to allow single clones formation. The formed clones were screened by DNA sequencing and whole exon sequencing analysis for the desired edition. H1975-clone #28, H1975-clone #23, H1975-clone #25 and H1975-clone #8 were finally confirmed as homozygous Del19/T790M/C797S EGFR, Del19/C797S EGFR, L858R/T790M/C797S EGFR and L858R/C797S EGFR clones, respectively.
(§2) H1975-#25, H1975-#28, H1975-#23 and H1975-#8 cells are treated with compounds diluted in 0.2% DMSO cell culture medium on day 2, incubate for 16 h, 37° C., 5% CO2. The final concentration of compounds in all assay is start with 10 μM, 5-fold dilution, total 8 doses were included.
(§3) Total-EGFR cellular kit(64NG1PEH) were used for evaluating EGFR degradation.
(§4) After 16 h treatment, add HTRF lysis buffer to each well; seal the plate and incubate 1 hour at room temperature on a plate shaker; Once the cells are lysed, 16 μL of cell lysate are transferred to a PE 384-well HTRF detection plate; 4 μL of pre-mixed HTRF antibodies are added to each well; cover the plate with a plate sealer, spin 1000 rpm for 1 min, incubate overnight at room temperature; read on BMG PheraStar with HTRF protocol (337 nm-665 nm-620 nm).
(§5) The inhibition (degradation) percentage of the compound was calculated by the following equation:
(§6) Inhibition percentage of Compound=100−100×(Signal−low control)/(High control−low control), wherein signal=each test compound group
(§7) High control=Cell group with added DMSO and without compound, indicating microplate readings without EGFR degradation.
(§8) Imax (Dmax) is the maximum percentage of inhibition (degradation).
(§9) The IC50 (DC50) value of a compound can be obtained by fitting the following equation
(§10) Wherein, X and Y are known values, and IC50, Hillslope, Top and Bottom are the parameters obtained by fitting with software. Y is the inhibition percentage (calculated from the equation), X is the concentration of the compound; IC50 is the concentration of the compound when the 50% inhibition is reached. The smaller the IC50 value is, the stronger the inhibitory ability of the compound is. Vice versa, the higher the IC50 value is, the weaker the ability the inhibitory ability of the compound is; Hillslope represents the slope of the fitted curve, generally around 1*; Bottom represents the minimum value of the curve obtained by data fitting, which is generally 0%±20%; Top represents the maximum value of the curve obtained by data fitting, which is generally 100%±20%. The experimental data were fitted by calculating and analyzing with Dotmatics data analysis software.

[2] = molecular target: T1, EGFR L858R/T790M/C797S (H1975-clone #25) (Homo sapiens, UniProt P00533, C797S/L858R/T790M); assay: EGFR degradation, HTRF total-EGFR assay, H1975-clone #25 (LTC); assay type: cell-based; conditions: H1975-clone #25 L858R/T790M/C797S, 16 h treatment
T1 construct: expressed in transfected cells; host or cells: H1975 (clone #25), lentiviral transduction, endogenous EGFR knocked out
T1 sequence (P00533 25-1210 T790M/C797S/L858R): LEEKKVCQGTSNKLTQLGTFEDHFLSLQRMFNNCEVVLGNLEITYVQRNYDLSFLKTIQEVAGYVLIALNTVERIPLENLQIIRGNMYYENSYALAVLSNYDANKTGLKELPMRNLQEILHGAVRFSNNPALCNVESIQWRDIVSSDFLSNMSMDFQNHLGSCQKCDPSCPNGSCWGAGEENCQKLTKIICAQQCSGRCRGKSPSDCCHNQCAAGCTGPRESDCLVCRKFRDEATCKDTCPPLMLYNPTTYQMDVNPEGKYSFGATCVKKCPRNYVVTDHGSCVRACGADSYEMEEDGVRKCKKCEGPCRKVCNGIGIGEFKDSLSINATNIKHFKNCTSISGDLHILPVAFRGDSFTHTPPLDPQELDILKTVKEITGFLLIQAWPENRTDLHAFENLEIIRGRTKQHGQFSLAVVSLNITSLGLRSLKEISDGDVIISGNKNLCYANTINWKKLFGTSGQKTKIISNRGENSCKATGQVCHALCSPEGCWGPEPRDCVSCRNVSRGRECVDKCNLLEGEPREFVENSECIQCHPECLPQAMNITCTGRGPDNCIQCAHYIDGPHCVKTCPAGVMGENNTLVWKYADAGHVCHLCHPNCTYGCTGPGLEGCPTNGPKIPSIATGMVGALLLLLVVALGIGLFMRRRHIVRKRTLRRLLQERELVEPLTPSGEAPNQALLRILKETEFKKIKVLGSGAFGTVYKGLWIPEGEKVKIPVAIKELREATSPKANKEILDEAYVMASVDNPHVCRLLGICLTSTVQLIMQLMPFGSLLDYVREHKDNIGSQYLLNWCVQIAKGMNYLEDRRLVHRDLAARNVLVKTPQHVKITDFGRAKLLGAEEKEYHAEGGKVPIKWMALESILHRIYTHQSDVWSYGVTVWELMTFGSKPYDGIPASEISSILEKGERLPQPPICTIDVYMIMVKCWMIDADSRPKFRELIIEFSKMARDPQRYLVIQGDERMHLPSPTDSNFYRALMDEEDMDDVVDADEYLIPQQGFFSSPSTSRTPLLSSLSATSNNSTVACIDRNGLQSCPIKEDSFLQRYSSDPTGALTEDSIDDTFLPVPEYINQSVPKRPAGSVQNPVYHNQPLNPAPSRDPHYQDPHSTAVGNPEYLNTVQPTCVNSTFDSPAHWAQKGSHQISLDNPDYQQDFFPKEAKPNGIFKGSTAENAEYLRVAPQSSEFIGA
From the text: as §1, §2, §3, §4, §5, §6, §7, §8, §9, §10

EGFR Del19/T790M/C797S (H1975-clone #28), sequence (P00533 with tags, fused parts or gaps DEL746-750/T790M/C797S, form open): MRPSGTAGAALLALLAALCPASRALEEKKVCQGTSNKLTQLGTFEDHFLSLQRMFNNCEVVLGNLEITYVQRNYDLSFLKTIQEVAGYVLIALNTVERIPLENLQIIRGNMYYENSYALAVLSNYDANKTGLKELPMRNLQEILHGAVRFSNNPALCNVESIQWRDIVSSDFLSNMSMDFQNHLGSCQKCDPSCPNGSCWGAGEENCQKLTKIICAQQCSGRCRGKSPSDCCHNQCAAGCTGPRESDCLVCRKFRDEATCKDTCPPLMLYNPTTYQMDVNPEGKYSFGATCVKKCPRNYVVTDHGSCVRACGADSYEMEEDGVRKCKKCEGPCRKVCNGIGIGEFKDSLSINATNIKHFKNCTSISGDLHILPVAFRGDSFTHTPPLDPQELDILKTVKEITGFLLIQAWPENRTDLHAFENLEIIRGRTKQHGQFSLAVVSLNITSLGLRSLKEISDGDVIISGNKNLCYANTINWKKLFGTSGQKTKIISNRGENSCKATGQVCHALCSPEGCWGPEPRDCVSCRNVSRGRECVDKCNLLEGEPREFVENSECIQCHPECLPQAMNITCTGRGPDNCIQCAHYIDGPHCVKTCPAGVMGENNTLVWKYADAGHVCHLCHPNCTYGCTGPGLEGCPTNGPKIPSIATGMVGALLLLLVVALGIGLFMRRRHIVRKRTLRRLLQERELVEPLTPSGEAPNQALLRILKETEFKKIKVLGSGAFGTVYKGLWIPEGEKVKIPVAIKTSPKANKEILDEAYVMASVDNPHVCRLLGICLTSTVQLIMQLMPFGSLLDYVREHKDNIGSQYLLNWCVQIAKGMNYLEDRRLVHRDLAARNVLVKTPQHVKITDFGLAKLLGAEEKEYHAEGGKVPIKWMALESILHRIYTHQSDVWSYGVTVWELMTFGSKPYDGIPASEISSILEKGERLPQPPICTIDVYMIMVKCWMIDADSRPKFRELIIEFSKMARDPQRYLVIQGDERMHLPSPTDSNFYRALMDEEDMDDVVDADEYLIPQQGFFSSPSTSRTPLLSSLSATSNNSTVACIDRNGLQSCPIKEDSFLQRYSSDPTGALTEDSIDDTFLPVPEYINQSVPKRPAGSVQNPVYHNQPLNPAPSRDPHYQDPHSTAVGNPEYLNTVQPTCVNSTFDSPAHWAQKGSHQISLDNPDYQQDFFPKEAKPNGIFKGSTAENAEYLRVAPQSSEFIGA

| Structure (SMILES) | Degradation H1975 # 28 DTC [1] | Degradation H1975 # 25-LTC [2] |
| --- | --- | --- |
| Cc1cc2cc(n1)-c1cnn(C)c1OC[C@H]1C[C@@H](CN3/C(=N/C2=O)Nc2ccc(N4C5CCC4CN(C4CCN(c6ccc(C7CCC(=O)NC7=O)nc6C)CC4)C5)cc23)C1 (stereo partly shown) [Example 127, 3-(5-(4-(8-((7^1s,7^3s,E)-1^1,2^6-dimethyl-3-oxo-5^2,5^3-dihydro-1^1H,5^1H-9-oxa-4-aza-5(2,1)-benzo[d]imidazola-2(2,4)-pyridina-1(4,5)-pyrazola-7(1,3)-cyclobutanacyclononaphane-5^6-yl)-3,8-diazabicyclo[3.2.1]octan-3-yl)piperidin-1-yl)-6-methylpyridin-2-yl)piperidine-2,6-dione] | 85.5 | 96.0 |
| Cc1cc2cc(n1)-c1cnn(C)c1OC[C@H]1C[C@@H](CN3/C(=N/C2=O)Nc2ccc(N4CCN(C5CCN(c6ccc(C7CCC(=O)NC7=O)nc6C)CC5)CC45COC5)cc23)C1 (stereo partly shown) [Example 124, 3-(5-(4-(5-((7^1s,7^3S,E)-1^1,2^6-dimethyl-3-oxo-5^2,5^3-dihydro-1^1H,5^1H-9-oxa-4-aza-5(2,1)-benzo[d]imidazola-2(2,4)-pyridina-1(4,5)-pyrazola-7(1,3)-cyclobutanacyclononaphane-5^6-yl)-2-oxa-5,8-diazaspiro[3.5]nonan-8-yl)piperidin-1-yl)-6-methylpyridin-2-yl)piperidine-2,6-dione] | 82.6 | 87.5 |
| Cc1cc2cc(n1)-c1cnn(C)c1OC[C@H]1C[C@@H](CN3/C(=N/C2=O)Nc2ccc(N4CCN(C5CN(c6cc(F)c([C@H]7CCC(=O)NC7=O)c(F)c6)C5)CC4)cc23)C1 [Example 29, (R)-3-(4-(3-(4-((7^1s,7^3s,E)-1^1,2^6-dimethyl-3-oxo-5^2,5^3-dihydro-1^1H,5^1H-9-oxa-4-aza-5(2,1)-benzo[d]imidazola-2(2,4)-pyridina-1(4,5)-pyrazola-7(1,3)-cyclobutanacyclononaphane-5^6-yl)piperazin-1-yl)azetidin-1-yl)-2,6-difluorophenyl)piperidine-2,6-dione] | 78.3 | 42.6 |
| Cc1cc2cc(n1)-c1cnn(C)c1OC[C@H]1C[C@@H](CN3/C(=N/C2=O)Nc2ccc(N4CCC(N5CCN(c6cc(F)c([C@H]7CCC(=O)NC7=O)c(F)c6)CC5=O)CC4)cc23)C1 [Example 70, (R)-3-(4-(4-(1-((7^1s,7^3s,E)-1^1,2^6-dimethyl-3-oxo-5^2,5^3-dihydro-1^1H,5^1H-9-oxa-4-aza-5(2,1)-benzo[d]imidazola-2(2,4)-pyridina-1(4,5)-pyrazola-7(1,3)-cyclobutanacyclononaphane-5^6-yl)piperidin-4-yl)-3-oxopiperazin-1-yl)-2,6-difluorophenyl)piperidine-2,6-dione] | 88.7 | 91.8 |
| Cc1cc2cc(n1)-c1cnn(C)c1OC[C@H]1C[C@@H](CN3/C(=N/C2=O)Nc2ccc(N4CCN(C5CCN(c6cnc(C7CCC(=O)NC7=O)c(F)c6)CC5)CC4)cc23)C1 (single isomer, unassigned) [Example 38, 3-(5-(4-(4-((7^1s,7^3s,E)-1^1,2^6-dimethyl-3-oxo-5^2,5^3-dihydro-1^1H,5^1H-9-oxa-4-aza-5(2,1)-benzo[d]imidazola-2(2,4)-pyridina-1(4,5)-pyrazola-7(1,3)-cyclobutanacyclononaphane-5^6-yl)piperazin-1-yl)piperdine-1-yl)-3-fluoropyridin-2-yl)piperidine 6-dione] | 78.4 | 81.4 |
| Cc1cc2cc(n1)-c1cnn(C)c1OC[C@H]1C[C@@H](CN3/C(=N/C2=O)Nc2ccc(N4CCN([C@H]5CCN(c6cnc(C7CCC(=O)NC7=O)cc6C)C[C@H]5F)CC4)cc23)C1 (stereo partly drawn) [Example 134, 3-(5-((3R,4S)-4-(4-((7^1s,7^3R,E)-1^1,2^6-dimethyl-3-oxo-5^2,5^3-dihydro-1^1H,5′H-9-oxa-4-aza-5(2,1)-benzo[d]imidazola-2(2,4)-pyridina-1(4,5)-pyrazola-7(1,3)-cyclobutanacyclononaphane-5^6-yl)piperazin-1-yl)-3-fluoropiperidin-1-yl)-4-methylpyridin-2-yl)piperidine-2,6-dione] | 89.6 | 92.0 |
| Cc1cc2cc(n1)-c1cnn(C)c1OC[C@H]1C[C@@H](CN3/C(=N/C2=O)Nc2ccc(N4CCN(CCNc5cc(F)c([C@H]6CCC(=O)NC6=O)c(F)c5)CC4)cc23)C1 (single isomer, unassigned) [Example 14] | 77.1 | 83.9 |
| Cc1cc2cc(n1)-c1cnn(C)c1OC[C@H]1C[C@@H](CN3/C(=N/C2=O)Nc2ccc(N4CCN(C5CCN(c6cc(F)c([C@H]7CCC(=O)NC7=O)c(F)c6)CC5)C(=O)C4)cc23)C1 [Example 25, (R)-3-(4-(4-(4-((7^1s,7^3s,E)-1^1,2^6-dimethyl-3-oxo-5^2,5^3-dihydro-1^1H,5^1H-9-oxa-4-aza-5(2,1)-benzo[d]imidazola-2(2,4)-pyridina-1(4,5)-pyrazola-7(1,3)-cyclobutanacyclononaphane-5^6-yl)-2-oxopiperazin-1-yl)piperidin-1-yl)-2,6-difluorophenyl)piperine-2,6-dione] | 89.9 | 83.4 |
| COC[C@H]1CN(c2ccc3c(c2)N2C[C@H]4C[C@@H](COc5c(cnn5C)-c5cc(cc(C)n5)C(=O)/N=C/2N3)C4)CCN1C1CCN(c2cc(F)c([C@H]3CCC(=O)NC3=O)c(F)c2)CC1 [Example 27, (R)-3-(4-(4-((R)-4-((7^1s,7^3S,E)-1^1,2^6-dimethyl-3-oxo-5^2,5^3-dihydro-1^1H,5^1H-9-oxa-4-aza-5(2,1)-benzo[d]imidazola-2(2,4)-pyridina-1(4,5)-pyrazola-7(1,3)-cyclobutanacyclononaphane-5^6-yl)-2-(methoxymethyl)piperazin-1-yl)piperidin-1-yl)-2,6-difluorophenyl)piperidine-2,6-dione] | 84.7 | 89.6 |
| Cc1cc2cc(n1)-c1cnn(C)c1OC[C@H]1C[C@@H](CN3/C(=N/C2=O)Nc2ccc(N4CCN(C5CCN(c6ccc(C7CCC(=O)NC7=O)nc6)CC5)CC4=O)cc23)C1 (stereo partly shown) [Example 12, 3-(5-(4-(4-((7^1s,7^3s,E)-1^1,2^6-dimethyl-3-oxo-5^2,5^3-dihydro-1^1H,5^1H-9-oxa-4-aza-5(2,1)-benzo[d]imidazola-2(2,4)-pyridina-1(4,5)-pyrazola-7(1,3)-cyclobutanacyclononaphane-5^6-yl)-3-oxopiperazin-1-yl)piperidin-1-yl)pyridin-2-yl)piperidine-2,6-dione] | 85.3 | 79.0 |
| Cc1cc2cc(n1)-c1cnn(C)c1OC[C@H]1C[C@@H](CN3/C(=N/C2=O)Nc2ccc(N4CCN(C5CCN(c6ccc(C7CCC(=O)NC7=O)nc6)CC5)CC4)cc23)C1 (stereo partly shown) [Example 15, 3-(5-(4-(4-((7^1s,7^3s,E)-1^1,2^6-dimethyl-3-oxo-5^2,5^3-dihydro-1^1H,5^1H-9-oxa-4-aza-5(2,1)-benzo[d]imidazola-2(2,4)-pyridina-1(4,5)-pyrazola-7(1,3)-cyclobutanacyclononaphane-5^6-yl)piperazin-1-yl)piperidin-1-yl)pyridin-2-yl)piperidine-2,6-dione] | 76.0 | 87.3 |
